# Data taken from publication PMC10455244, “Alpha-Mangostin: A Potent Inhibitor of TRPV3 and Pro-Inflammatory Cytokine Secretion in Keratinocytes” (International Journal of Molecular Sciences, 2023).
# Biological target: T1, TRPV3 (Homo sapiens, UniProt Q8NET8)
# T1 sequence (Q8NET8 1-790): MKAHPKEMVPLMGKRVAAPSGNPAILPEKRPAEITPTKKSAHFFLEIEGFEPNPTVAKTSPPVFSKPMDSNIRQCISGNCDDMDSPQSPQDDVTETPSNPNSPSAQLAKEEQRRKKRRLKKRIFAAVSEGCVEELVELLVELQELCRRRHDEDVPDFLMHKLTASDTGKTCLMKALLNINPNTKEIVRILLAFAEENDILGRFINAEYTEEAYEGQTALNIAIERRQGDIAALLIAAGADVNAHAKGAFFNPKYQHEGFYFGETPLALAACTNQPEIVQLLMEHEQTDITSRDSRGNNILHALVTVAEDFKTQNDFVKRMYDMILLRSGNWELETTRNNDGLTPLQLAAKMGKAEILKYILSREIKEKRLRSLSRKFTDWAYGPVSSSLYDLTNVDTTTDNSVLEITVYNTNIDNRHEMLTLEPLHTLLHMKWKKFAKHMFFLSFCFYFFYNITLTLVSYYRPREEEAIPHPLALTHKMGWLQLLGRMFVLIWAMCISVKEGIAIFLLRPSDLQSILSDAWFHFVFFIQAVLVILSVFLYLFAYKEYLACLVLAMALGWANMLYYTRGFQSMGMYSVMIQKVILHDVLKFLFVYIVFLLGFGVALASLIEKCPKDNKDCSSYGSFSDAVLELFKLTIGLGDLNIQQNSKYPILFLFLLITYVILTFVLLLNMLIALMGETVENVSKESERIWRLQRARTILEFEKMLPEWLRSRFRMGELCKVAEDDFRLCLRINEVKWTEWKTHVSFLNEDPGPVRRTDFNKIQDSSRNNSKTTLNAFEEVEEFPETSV
# Assay: Fura-2 calcium imaging, carvacrol-induced Ca2+ increase in NHEK
# Format: cell-based
# Design: host or cells: NHEK
# Conditions: 300 µM carvacrol, keratinocytes (NHEK), control 0.029 ± 0.003
# Method: Since the TRPV3-mediated calcium influx is reported to contribute to proper skin function, we investigated whether alpha-mangostin inhibits the intracellular calcium increase induced by carvacrol in hTRPV3-overexpressing HEK 293T cells and keratinocytes. […] In hTRPV3-overexpressing HEK 293T cells, ∆(F340/F380) decreased by approximately 25% and 70% upon exposure to 0.3 µM and 3 µM alpha-mangostin, respectively (Figure 3A, 0.424 ± 0.032 vs. 0.316 ± 0.030 and 0.144 ± 0.006, respectively).
# Figure 3 Alpha-mangostin (α-MG) inhibited TRPV3-mediated intracellular calcium increase. Cells were perfused with solutions containing 0.3 µM, 3 µM alpha-mangostin or 10 µM 74a before the addition of 300 µM carvacrol (red, green, and blue lines, respectively). […]
# Fura-2 AM (Thermo Fisher Scientific) was utilized as a fluorescent indicator to measure calcium signal, as described previously. […] To measure the cytosolic Ca^2+ level, a sequential excitation of Fura-2 is performed at 340 nm and 380 nm; then, the emission signals resulting from each excitation wavelength are measured and the ratio of these signals is calculated. […] Samples were excited using a wavelength of 380 nm for 20 ms, followed by 340 nm for 100 ms, and fluorescence at 510 nm was recorded. Recorded data were then analyzed using NIS-Element AR Version 5.00.00 (Nikon Instruments, Melville, NY, USA). […]
compound,measurement,setting,value
COc1c(O)cc2oc3cc(O)c(CC=C(C)C)c(O)c3c(=O)c2c1CC=C(C)C [Alpha-mangostin],Change in F340/F380,0.3 µM,0.019 ± 0.002
same,Change in F340/F380,3 µM,0.010 ± 0.002
